Measured values from PubChem BioAssay (NCI).
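All cell lines were grown in 96-well plates and treated with compound for 48 hours. GI50: concentration for 50% inhibition of growth. Definition used: TGI = concentration required for complete inhibition of growth.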

Columns and labels:
Assay in all cases: inhibition of tumour cell growth, NCI panel, 48 h
NCI/ADR-RES ovarian = tested on: NCI/ADR-RES ovarian
MOLT-4 leukemia = tested on: MOLT-4 leukemia
CCRF-CEM leukemia = tested on: CCRF-CEM leukemia
HOP-92 NSCLC = tested on: HOP-92 NSCLC
MDA-MB-435 = tested on: MDA-MB-435
SN12C renal = tested on: SN12C renal
OVCAR-5 ovarian = tested on: OVCAR-5 ovarian
COLO 205 colon = tested on: COLO 205 colon
SF-268 CNS = tested on: SF-268 CNS
HCC-2998 colon = tested on: HCC-2998 colon
TK-10 renal = tested on: TK-10 renal

Row | SMILES | GI50 (NCI/ADR-RES ovarian) [µM] | GI50 (MOLT-4 leukemia) [pM] | TGI (CCRF-CEM leukemia) [µM] | GI50 (HOP-92 NSCLC) [µM] | TGI (HOP-92 NSCLC) [µM] | GI50 (MDA-MB-435) [µM] | TGI (MDA-MB-435) [µM] | TGI (SN12C renal) [µM] | TGI (OVCAR-5 ovarian) [µM] | TGI (COLO 205 colon) [µM] | TGI (SF-268 CNS) [µM] | TGI (MOLT-4 leukemia) [µM] | TGI (HCC-2998 colon) [µM] | TGI (TK-10 renal) [µM] | TGI (NCI/ADR-RES ovarian) [µM] | GI50 (CCRF-CEM leukemia) [µM]
1 | COc1cc2c(cc1O)CCN[C@@]21CS[C@H]2c3c(OC(C)=O)c(C)c4c(c3C(COC1=O)N1C2C2c3c(cc(C)c(OC)c3O)CC([C@@H]1O)N2C)OCO4 (stereo not given in full) | 0.0112 | < 1 | < 1e-06 | 0.00347 | 0.064 | 0.00219 | 0.00604 | 4.41e-06 | – | – | – | – | – | – | – | –
2 | C#CCCCCC#CC1CCCC1C1=CC(=O)c2ccccc21 (stereo not given) | – | – | – | – | 16.1 | – | – | 19.4 | 23.7 | 28.6 | 11.8 | > 100 | 25.2 | 34.5 | – | –
3 | CN(C)CCNc1ccc2nnn3c4ccc(Cl)cc4c(=O)c1c23 | – | – | > 52.8 | – | 14.2 | – | 18.8 | 21.8 | 13.3 | 10.5 | 23.1 | 13.3 | 23.4 | 22.1 | 15.9 | –
4 | COc1cc2c(cc1OC)C(C1(O)CCCCC1)NCC2 (stereo not given) | – | – | > 100 | – | > 100 | – | – | > 100 | > 100 | > 100 | > 100 | > 100 | > 100 | > 100 | – | –
5 | C[n+]1ccccc1/C=C/c1ccc2c(c1)OCO2 | – | – | > 10 | – | – | – | > 10 | > 10 | > 10 | > 10 | > 10 | > 10 | > 10 | > 10 | > 10 | –
6 | N=c1nc(N)nc(N)n1-c1ccc(S(N)(=O)=O)cc1 | – | – | > 100 | – | > 100 | – | > 100 | > 100 | > 100 | – | > 100 | > 100 | – | > 100 | > 100 | –
7 | CCCNCC(O)/C=C/[Si](C)(C)C (stereo not given) (tested in a mixture with another compound) | – | – | > 100 | – | > 100 | – | – | > 100 | > 100 | > 100 | – | – | > 100 | > 100 | – | –
8 | O=C(N/N=C/c1cc(Br)cc(Br)c1[O-])c1ccccc1O.O=C(N/N=C/c1cc(Br)cc(Br)c1[O-])c1ccccc1O.[Cl-].[Fe+3] | – | – | > 100 | – | 6.12 | – | – | – | 7.61 | – | 33.1 | > 100 | 5.65 | 20 | – | 38.6
9 | Oc1ccc2ccccc2c1N=Nc1ccc(N=Nc2ccccc2)cc1 | – | – | > 100 | – | – | – | > 100 | > 100 | > 100 | > 100 | > 100 | > 100 | – | > 100 | > 100 | –
10 | Cc1c(Cl)c(S(N)(=O)=O)cc(S(N)(=O)=O)c1NC(=O)c1ccc(Cl)cc1 | – | – | > 100 | – | > 100 | – | > 100 | > 100 | > 100 | > 100 | > 100 | > 100 | > 100 | > 100 | > 100 | –
11 | CCCCCCc1ccc(O)cc1O | – | – | > 100 | – | 86.9 | – | – | > 100 | > 100 | > 100 | > 100 | 97.4 | > 100 | – | > 100 | –
12 | C/C=C1/CN2CC[C@@H]3c4ccccc4N4[C@H](C(=O)OC)[C@H]1C[C@H]2[C@]34/C=C/C1=COC[C@@H]2[C@H]1C[C@H]1c3c(c4ccccc4n3C)C[C@@H]2N1C | – | – | 9.49 | – | 9 | – | 7.18 | 9.17 | 7.99 | 6.62 | 7.16 | 13.4 | 1.31 | 7.5 | 6.69 | –
